Series [1] has as its system PCP-induced hyperlocomotion in male NMRI mice. Nature of the series: Phencyclidine (PCP)-induced hyperlocomotion in mice (video tracking). The format is in vivo. Particulars: for ED50: Mus musculus, read-out: Mice ED50 (mg/kg) PCP-Inh. On the procedure: (§1) Motor Activity (Video Tracking)
(§2) Apparatus and General Procedure
(§3) On the day of experiments, the mice were brought into the procedural room. They were housed individually and allowed to acclimate for at least a half hour prior to testing. Although the studies were conducted during the light cycle (from 8:00 to 16:00 h), the procedure room was only sparsely lit (3 to 30 LUX) to provide better contrast for the video tracking. Local lighting was used for the injection procedures. During each trial, an individual mouse was placed in an open field arena (grey PVC cylinder with a height of 40 cm and a diameter of 22.5 cm). Each arena was placed on an infrared LED (8×8 LEDs)-lit box (white PVC squared box; 40×40 cm^2; height 12.5 cm). Each mouse was placed in the center of the arena and allowed to explore freely for 30 min. After each trial, the arena was cleaned with a wet and subsequently with a dry cleaning cloth. An infrared sensitive tube camera and a white light source (in arena: 4-7 LUX) were mounted to the ceiling above the observation chamber to record and input activity to a computer. Animal behavior was recorded and analyzed using the Noldus Ethovision XT Video Tracking System (Version 3.1; Noldus, Wageningen, The Netherlands). The total distance traveled (cm) was calculated. Data were then exported to data management systems for further analysis and reporting.
Phencyclidine (PCP)-Induced Hyperlocomotion in Mice
Test compound or solvent was administered at a pre-defined time before measurement (standard: 30 min) to male NMRI mice that were challenged with phencyclidine (PCP; 5 mg/kg, s.c.) 30 min before measurement. Activity was measured for a period of 30 min.

Another series concerns the target T1, human mGluR2 receptor (Homo sapiens, UniProt Q14416).
T1 construct: expressed in transfected cells; host or cells: CHO cells
As to the kind of experiment: [35S]GTPγS binding assay, positive allosteric modulation (GTPγS-PAM) in presence of EC20 glutamate. It is filed as biochemical. As to conditions: in presence of glutamate at EC20, average pEC50 if more experiments, ‡ means tested once. In a few lines:
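Membranes from butyrate-stimulated CHO cells expressing human mGluR2 (7 μg protein) preincubated 30 min at 30°C with compound plus ~EC20 glutamate in HEPES pH 7.4, 100 mM NaCl, 3 mM MgCl2, 10 μM GDP, 10 μg/ml saponin. [35S]GTPγS (0.1 nM) incorporation over 30 min at 30°C measured by filtration and scintillation counting.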
In general terms: GTPγS is a poorly hydrolysed GTP analogue; its binding reports G protein activation.

The subject of series [2] is conditioned avoidance response in male Wiga Wistar rats. As to the kind of experiment: Conditioned avoidance response (CAR) test in rats. As to conditions: for ED50: Rattus norvegicus, po, read-out: ED50 (mg/kg) CAR-Inh. It is filed as in vivo. An excerpt:
Conditioned Avoidance Response (CAR) Test
The apparatus consisted of an inner box surrounded by an outer box. The inner box was composed of four walls of transparent, synthetic material (length×width×height: 30×30×30 cm), an open top, and a grid floor made of 15 pairs of iron bars (2 mm diameter; 6 mm inter-bar distance). Odd and even bars were connected with a source of alternative current (1.0 mA; Coulbourn Instruments Solid State Shocker/Distributor), which could be interrupted by a switch. The outer box was composed of the same material (length×width×height: 40×40×36 cm), also with an open top, with a distance of 5 cm between the inner and outer box on all sides. To decrease the amount of environmental stimuli, three walls of the outer box were made non-transparent. The front wall was left transparent to allow the necessary inspection of the animal during the test. The upper edge of the outer and inner box served as a target for the rats on which to jump with fore- and hind-paws, respectively.
Avoidance Conditioning and Selection of Animals
From their arrival in the laboratory on the experimental day, male Wiga Wistar rats (230±30 g) were housed in individual cages provided with bedding material.
Latency to avoidance was recorded. The median avoidance response obtained over the three experimental sessions for each rat were used for further calculations.

In series [3] the test system is memantine-induced 2DG uptake in mouse brain (hippocampus). Nature of the series: Reversal of memantine-induced brain activation ([14C]2DG uptake) in mice. It is filed as in vivo. Particulars: for L.A.D. (lowest active dose for significant reduction of 2DG uptake in hippocampus vs memantine response): mice C57BL/6, s.c., memantine 20 mg/kg s.c., p<0.05. On the procedure:
Reversal of Memantine-Induced Brain Activation in Mice
NMDA receptor hypofunction is hypothesized to be involved in schizophrenia.
Autoradiographic assessment of radiolabeled [^14C]-2-deoxyglucose ([^14C]2DG) uptake is commonly used to investigate brain activation. In humans, cerebral blood flow is increased in specific brain regions after administration of a subanaesthetic dose of ketamine.
Male mice (C57BL/6, weight 24-28 g, fasted overnight; n=10 animals per group) were treated with vehicle or test compound (s.c.) in randomized order (t=0 min). Memantine (20 mg/kg, s.c.) was injected 30 min later (t=30 min). At t=45 min, [^14C]2DG (0.16 μCi/g) was administered intraperitoneally (i.p.), followed by a 45 min uptake period. Animals were decapitated (t=90 min), plasma glucose levels measured, the brain removed, rapidly frozen and stored at −20° C. until sectioned. Brain sections were exposed together to a precalibrated [^14C]standard on film, which was developed after four days of exposure. Local tissue [^14C]concentration (nCi/mg tissue equivalent—TEQ—) in each region of interest was determined.
Data was analyzed statistically using a two-way ANOVA analysis followed by post-hoc tests (memantine response versus reversal by the compound). The results are shown in table 5 below, expressed as lowest active dose (L.A.D.) required to exert a statistically significant (p<0.05) reduction of 2DG uptake in the hippocampus compared to memantine response.

The test system of the next series is REM sleep in rats. Nature of the series: Sleep wake electroencephalography (SW-EEG) in rats. It is filed as in vivo. An excerpt:
Sleep Wake Electroencephalography (SW-EEG) in Rats
SW-EEG analyses are a highly sensitive read-out of a compound's central functional activity that may provide additional insight in the potential therapeutic application (i.e. via drug classification fingerprinting). […] Internal efforts have confirmed that this effect is mGlu2 receptor-mediated, i.e. is absent in mGlu2 KO mice. Sleep abnormalities are often associated with CNS disorders; as such, the potential use of mGlu2 modulators could also have benefit in the treatment of CNS disorders in which (REM) sleep aberrations are manifested. More specifically, the combination of a persistent reduction in REM occurrence and an increase in REM latency is one of the key features of the typical SW architecture fingerprint of most clinically active antidepressants.
We investigated the effects of oral administration of compounds according to the invention on SW organization in rats. The mGlu2/3 receptor agonists LY404039 and LY354740 were also evaluated to allow comparison.

Series [4] deals with d-amphetamine-induced hyperlocomotion in male NMRI mice. As to the kind of experiment: d-Amphetamine-induced hyperlocomotion in mice (video tracking). The format is in vivo. On the procedure: as §1, §2
as §3, with “An infrared sensitive tube camera and a white light source (in arena: 4-7 LUX) were mounted to the ceiling above the observation chamber to record and input activity to a computer.” left out, “Data were then exported to data management systems for further analysis and reporting.” left out
Test compound or solvent was administered at a pre-defined time before measurement (standard: 30 min) to male NMRI mice that were challenged with d-amphetamine (5 mg/kg, s.c.) 30 min before measurement. Activity was measured for a period of 30 min.

Where [5] appears, read: compound administered orally (*); a)/b) = estimated ED50 values.
Where [6] appears, read: not marked * (not oral; injection per method); b) = estimated ED50 values (n = 3 per dose).

Like-named read-outs stand apart in the source and are kept apart here. Marks after values point to notes of the source that are not given here.

T1 sequence (Q14416 19-872): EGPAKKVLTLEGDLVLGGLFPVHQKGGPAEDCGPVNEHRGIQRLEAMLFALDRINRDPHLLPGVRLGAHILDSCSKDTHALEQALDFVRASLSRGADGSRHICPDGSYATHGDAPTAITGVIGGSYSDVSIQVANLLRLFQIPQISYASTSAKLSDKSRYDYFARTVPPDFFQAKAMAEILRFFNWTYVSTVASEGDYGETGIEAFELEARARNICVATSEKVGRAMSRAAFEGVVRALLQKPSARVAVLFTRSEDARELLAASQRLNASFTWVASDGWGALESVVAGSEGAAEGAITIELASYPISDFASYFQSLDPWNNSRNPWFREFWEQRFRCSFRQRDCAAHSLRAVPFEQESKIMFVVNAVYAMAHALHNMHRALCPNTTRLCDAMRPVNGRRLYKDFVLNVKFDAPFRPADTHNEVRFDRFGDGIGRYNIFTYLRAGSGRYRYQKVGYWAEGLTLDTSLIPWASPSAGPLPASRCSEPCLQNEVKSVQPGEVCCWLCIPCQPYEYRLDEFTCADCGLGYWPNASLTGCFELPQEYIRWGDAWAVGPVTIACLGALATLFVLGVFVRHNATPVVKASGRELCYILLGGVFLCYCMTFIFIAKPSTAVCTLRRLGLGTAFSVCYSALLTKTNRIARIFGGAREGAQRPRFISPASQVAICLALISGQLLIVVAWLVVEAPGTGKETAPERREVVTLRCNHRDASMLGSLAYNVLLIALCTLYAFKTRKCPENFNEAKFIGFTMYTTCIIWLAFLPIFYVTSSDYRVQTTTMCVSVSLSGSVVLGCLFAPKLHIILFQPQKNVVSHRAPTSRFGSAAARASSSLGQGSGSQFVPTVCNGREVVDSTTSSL

As to `Fc1ccc(N2CCN(c3ccn4c(CC(F)(F)F)nnc4c3Cl)CC2)c(F)c1` [compound 97], the “inhibition of PCP-induced hyperlocomotion in mice (in words)” value (“inhibition … in mice (in words)” below) in series [1] (mice) is “inhibited”. The “Mice ED50 (mg/kg) PCP-Inh., estimated ED50 (footnote a)” value in series [1] (mice, inhibition of PCP-induced hyperlocomotion, estimated ED50 values (n = 3 per dose; 4-fold separation between doses)) was 6.3 ^a) mg/kg. Moreover, the “GTPγS - hR2 PAM pEC50” value on human mGluR2 receptor is recorded as 6.3. Moreover, the “inhibition of the conditioned avoidance response in rats (in words)” value (shortened to “inhibition … in rats (in words)”) in series [2] is “inhibited”. Besides, the entries for the “ED50 (mg/kg) CAR-Inh.” value in series [2] (setting [5]) and in series [2] (setting [6]) were 32*^b) mg/kg and 16^b) mg/kg, respectively. In addition, the “L.A.D. (lowest active dose for significant reduction of 2DG uptake in hippocampus vs memantine response)” value in series [3] was ≤10 mg/kg, s.c.

`N[C@@]1(C(=O)O)CC[C@H]2[C@H](C(=O)O)[C@H]21` [LY354740]: the “lowest active dose, decrease in REM sleep” value in the series on REM sleep in rats (acute dosing, s.c.) is reported as 3 mg/kg. Further, the “effect of subchronic treatment on REM sleep effect (in words)” value in the series on REM sleep in rats (once daily dosing for 7 days, 1, 3, 10 mg/kg, s.c.) is listed as “led to tolerance”.

For the compound `N[C@@]1(C(=O)O)CS(=O)(=O)[C@H]2[C@H](C(=O)O)[C@H]21` [LY404039, reference compound], the “effect on memantine-induced brain glucose metabolism / 2DG uptake (in words)” value in series [3] (mouse brain, reference drugs) is given as “inhibited”. Further, the “effect on REM sleep (in words)” value in the series on REM sleep in rats (3 mg/kg, p.o.) was “affect REM sleep”.

For the compound `CC1(C)OC2(CCN(c3ccn4c(CC5CC5)nnc4c3C(F)(F)F)CC2)c2ccccc21` [compound 112, 1′-[3-cyclopropylmethyl-8-(trifluoromethyl)[1,2,4]triazolo[4,3-a]pyridin-7-yl]-3,3-dimethyl-3H-spiro[benzo[c]furan-1,4′-piperidine]], the melting point (usually the temperature of the solid-liquid transition) stood at 207.7 °C. In addition, the ED50 in series [1] was 2 mg/kg. Moreover, the “inhibition … in mice (in words)” value in series [1] (mice) is recorded as “inhibited”. On human mGluR2 receptor (read-out: GTPγS - hR2 PAM pEC50 (converted)), the EC50 is 6.46 nM. The “L.A.D. (lowest active dose for significant reduction of 2DG uptake in hippocampus vs memantine response)” value in series [3] is reported as ≤2.5 mg/kg, s.c.

`FC(F)(F)c1c(N2CCC(c3ccccc3)CC2)ccn2c(CC3CC3)nnc12` [compound 43, 3-(Cyclopropylmethyl)-7-(4-phenyl-1-piperidinyl)-8-(trifluoromethyl)-1,2,4-triazolo[4,3-a]pyridine]: the ED50 in series [1] was 5.4 mg/kg; in series [4] (Mus musculus, sc, male NMRI mice, s.c., d-amphetamine 5 mg/kg s.c., criterion total distance <5500 counts, read-out: ED50, inhibition of amphetamine-induced hyperlocomotion), 37 mg/kg; in series [2] (setting [5]), 16.3 mg/kg; in series [2] (setting [6]), 2.35 mg/kg. In addition, in series [1] (mice), the “inhibition … in mice (in words)” value is recorded as “inhibited”. Moreover, the “activity against d-amphetamine-induced hyperlocomotion in mice (in words)” value in series [4] (mice) is on record as “active”. Further, the “inhibition … in rats (in words)” value in series [2] is “inhibited”. The “L.A.D. (lowest active dose for significant reduction of 2DG uptake in hippocampus vs memantine response)” value in series [3] is given as ≤2.5 mg/kg, s.c. Also, the “effect of subchronic treatment on REM sleep effect (in words)” value with REM sleep in rats (once daily dosing for 7 days, 3, 10 and 30 mg/kg, p.o.) was “did not diminish the effects”.

Take `FC(F)(F)Cc1nnc2c(Cl)c(N3CCC(F)(c4ccccc4)CC3)ccn12` [compound 3, 8-Chloro-7-(4-fluoro-4-phenyl-1-piperidinyl)-3-(2,2,2-trifluoroethyl)-1,2,4-triazolo[4,3-a]pyridine]: the ED50 in series [1] was 15.2 mg/kg; in series [2] (setting [5]), 14.1 mg/kg; in series [2] (setting [6]) it was 10.7 mg/kg. Moreover, the “inhibition … in mice (in words)” value in series [1] (mice) was “inhibited”. At human mGluR2 receptor, the “GTPγS - hR2 PAM pEC50” value is listed as 6.94. The “inhibition … in rats (in words)” value in series [2] is listed as “inhibited”. Besides, in series [3], the “L.A.D. (lowest active dose for significant reduction of 2DG uptake in hippocampus vs memantine response)” value is given as ≤2.5 mg/kg, s.c.

The values are drawn from US10071095B2, “1,2,4-triazolo [4,3-A] pyridine derivatives and their use for the treatment of neurological and psychiatric disorders” (JANSSEN PHARMACEUTICALS, INC., priority 2009, dated 2018).
